Inconclusive results and toxic doses are left out. Cut-off read from the data, not from the text of the source: active = T/C of 150% or more; inactive = T/C below 125%.
Tested on: L1210 leukemia ip in BDF1 mice, survival T/C
Assay: NCI In Vivo Anticancer Drug Screen. Data for tumor model L1210 Leukemia (intraperitoneal) in B6D2F1 (BDF1) mice
Details: endpoint: mean survival time, higher = longer survival
Procedure, shortened: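 Value reflects the ratio of survival in compound-treated mice to survival in vehicle-treated controls, with both groups carrying the same transplanted tumor.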

[1] = dose: 100.0 mg/kg/injection, schedule: Q01DX001 (ip), vehicle: carboxymethylcellulose (CMC)
[2] = dose: 100.0 mg/kg/injection, schedule: Q01DX009 (ip), vehicle: Klucel (hydroxypropylcellulose) (HPC)
[3] = dose: 200.0 mg/kg/injection, schedule: Q01DX001 (ip), vehicle: carboxymethylcellulose (CMC)
[4] = dose: 200.0 mg/kg/injection, schedule: Q01DX009 (ip), vehicle: Klucel (hydroxypropylcellulose) (HPC)
[5] = dose: 400.0 mg/kg/injection, schedule: Q01DX001 (ip), vehicle: carboxymethylcellulose (CMC)
[6] = dose: 400.0 mg/kg/injection, schedule: Q01DX009 (ip), vehicle: Klucel (hydroxypropylcellulose) (HPC)
[7] = dose: 100.0 mg/kg/injection, schedule: Q01DX009 (ip), vehicle: saline with Tween-80
[8] = dose: 100.0 mg/kg/injection, schedule: Q04DX003 (ip), vehicle: saline with Tween-80
[9] = dose: 200.0 mg/kg/injection, schedule: Q01DX009 (ip), vehicle: saline with Tween-80
[10] = dose: 200.0 mg/kg/injection, schedule: Q04DX003 (ip), vehicle: saline with Tween-80
[11] = dose: 400.0 mg/kg/injection, schedule: Q01DX009 (ip), vehicle: saline with Tween-80
[12] = dose: 400.0 mg/kg/injection, schedule: Q04DX003 (ip), vehicle: saline with Tween-80
[13] = dose: 100.0 mg/kg/injection, schedule: Q04DX003 (ip), vehicle: Klucel (hydroxypropylcellulose) (HPC)
[14] = dose: 200.0 mg/kg/injection, schedule: Q04DX003 (ip), vehicle: Klucel (hydroxypropylcellulose) (HPC)
[15] = dose: 400.0 mg/kg/injection, schedule: Q04DX003 (ip), vehicle: Klucel (hydroxypropylcellulose) (HPC)
[16] = dose: 100.0 mg/kg/injection, schedule: Q04DX002 (ip), vehicle: saline with Tween-80
[17] = dose: 200.0 mg/kg/injection, schedule: Q04DX002 (ip), vehicle: saline with Tween-80
[18] = dose: 400.0 mg/kg/injection, schedule: Q04DX002 (ip), vehicle: saline with Tween-80
[19] = dose: 50.0 mg/kg/injection, schedule: Q01DX001 (ip), vehicle: saline
[20] = dose: 100.0 mg/kg/injection, schedule: Q01DX001 (ip), vehicle: saline

Measured: T/C

CCOC(=O)Nc1cc(NC(c2ccccc2)c2ccccc2)c(N)c(N)n1
inactive: [1] 102 % of control | [2] 98 % of control | [3] 122 % of control | [4] 98 % of control | [5] 107 % of control | [6] 91 % of control

O=C(CCOCc1ccccc1)N1Cc2cc3ccccc3nc2C1=O
inactive: dose: 10.0 mg/kg/injection, schedule: Q07DX002 (ip), vehicle: alcohol 89 % of control | dose: 20.0 mg/kg/injection, schedule: Q07DX002 (ip), vehicle: alcohol 99 % of control | dose: 40.0 mg/kg/injection, schedule: Q07DX002 (ip), vehicle: alcohol 92 % of control | dose: 80.0 mg/kg/injection, schedule: Q07DX002 (ip), vehicle: alcohol 86 % of control

CCCCC(=O)NC(=O)c1ccccc1
inactive: [7] 96 % of control | [8] 101 % of control | [9] 96 % of control | [10] 92 % of control | [11] 93 % of control | [12] 103 % of control

O=C1c2cscc2Cc2ccsc21
inactive: dose: 100.0 mg/kg/injection, schedule: Q01DX001 (ip), vehicle: saline with Tween-80 88 % of control | dose: 200.0 mg/kg/injection, schedule: Q01DX001 (ip), vehicle: saline with Tween-80 91 % of control

Cc1cccc(NC(=S)N(CCC#N)C2CCCCC2)c1
inactive: [1] 95 % of control | [3] 90 % of control | [5] 101 % of control

Cc1cccc(-n2cnc3c(=O)[nH]c(N)nc32)c1
inactive: [13] 95 % of control | [14] 95 % of control | [15] 93 % of control

CCOC1=NCCCCC1OC(C)=O (configuration not stated)
inactive: [2] 107 % of control | [4] 104 % of control | [6] 95 % of control

Cc1ccc(OCCBr)cc1
inactive: [2] 93 % of control | [8] 100 % of control | [4] 101 % of control | [10] 107 % of control | [12] 98 % of control

COC12CC3C4=CCOC5CC(=O)N6c7ccccc7C1(CCN2C4)C6C53 (configuration not stated)
inactive: dose: 5.0 mg/kg/injection, schedule: Q01DX001 (ip), vehicle: saline 97 % of control | dose: 10.0 mg/kg/injection, schedule: Q01DX001 (ip), vehicle: saline 97 % of control | dose: 20.0 mg/kg/injection, schedule: Q01DX001 (ip), vehicle: saline 101 % of control

Cc1c2cccc(Sc3ccc(F)cc3)c2c2c3c(cccc13)[S+](c1ccc(F)cc1)C2 (configuration not stated)
inactive: dose: 12.5 mg/kg/injection, schedule: Q01DX001 (ip), vehicle: Klucel (hydroxypropylcellulose) (HPC) 100 % of control | dose: 25.0 mg/kg/injection, schedule: Q01DX001 (ip), vehicle: Klucel (hydroxypropylcellulose) (HPC) 94 % of control | dose: 50.0 mg/kg/injection, schedule: Q01DX001 (ip), vehicle: Klucel (hydroxypropylcellulose) (HPC) 90 % of control

O=C1NCCCC1C(=O)Nc1cccc2c1NCCC2 (configuration not stated)
inactive: dose: 100.0 mg/kg/injection, schedule: Q01DX001 (ip), vehicle: Klucel (hydroxypropylcellulose) (HPC) 105 % of control | dose: 200.0 mg/kg/injection, schedule: Q01DX001 (ip), vehicle: Klucel (hydroxypropylcellulose) (HPC) 94 % of control | dose: 400.0 mg/kg/injection, schedule: Q01DX001 (ip), vehicle: Klucel (hydroxypropylcellulose) (HPC) 105 % of control

CCCS(=O)(=O)N1CCCC1
inactive: [16] 99 % of control | [17] 105 % of control | [18] 99 % of control

CCCCCOC(=O)C1(C)OC1c1ccccc1 (configuration not stated)
inactive: dose: 100.0 mg/kg/injection, schedule: Q04DX002 (ip), vehicle: saline 108 % of control | dose: 200.0 mg/kg/injection, schedule: Q04DX002 (ip), vehicle: saline 93 % of control | dose: 400.0 mg/kg/injection, schedule: Q04DX002 (ip), vehicle: saline 93 % of control

CCOC(=O)C1=C(C)NC(C)=C(C(C)=O)C1c1ccnc2ccccc12 (configuration not stated)
inactive: [7] 98 % of control | [8] 95 % of control | [9] 102 % of control | [10] 92 % of control | [11] 100 % of control | [12] 100 % of control

CC[N+](C)(CC)CCCN(C)C(=O)C(c1ccccc1)c1ccccc1
inactive: dose: 12.5 mg/kg/injection, schedule: Q01DX001 (ip), vehicle: saline 92 % of control | dose: 12.5 mg/kg/injection, schedule: Q04DX003 (ip), vehicle: saline 98 % of control | dose: 25.0 mg/kg/injection, schedule: Q01DX001 (ip), vehicle: saline 103 % of control | dose: 25.0 mg/kg/injection, schedule: Q04DX003 (ip), vehicle: saline 93 % of control | [19] 92 % of control | dose: 50.0 mg/kg/injection, schedule: Q04DX003 (ip), vehicle: saline 93 % of control | dose: 75.0 mg/kg/injection, schedule: Q04DX003 (ip), vehicle: saline 97 % of control

Cc1ccc(N=Nc2c(N)nc(N)[nH]c2=O)cc1C
inactive: [20] 100 % of control | dose: 200.0 mg/kg/injection, schedule: Q01DX001 (ip), vehicle: saline 96 % of control | dose: 400.0 mg/kg/injection, schedule: Q01DX001 (ip), vehicle: saline 96 % of control

CCOC(=O)Nc1cc(NC(C)CCCN(CC)CC)c2nc(-c3ccccc3)c(-c3ccccc3)nc2n1 (configuration not stated)
inactive: [19] 93 % of control | [20] 90 % of control

COC1OC(C[N+](=O)[O-])C(OC(C)=O)C(OC(C)=O)C1OC(C)=O (configuration not stated)
inactive: [16] 102 % of control | [17] 109 % of control | [18] 95 % of control

c1cc[c]([Sb]([S]c2ncnc3nc[nH]c23)[c]2ccccc2)cc1
inactive: dose: 5.0 mg/kg/injection, schedule: Q01DX001 (ip), vehicle: other 97 % of control | dose: 10.0 mg/kg/injection, schedule: Q01DX001 (ip), vehicle: other 116 % of control

O=[N+]([O-])c1ccc(N=Nc2ccc(O)cc2)cc1
inactive: dose: 55.0 mg/kg/injection, schedule: Q01DX Z (ip), vehicle: methylcellulose (MC) 103 % of control | dose: 83.0 mg/kg/injection, schedule: Q01DX Z (ip), vehicle: methylcellulose (MC) 117 % of control | [8] 98 % of control | dose: 125.0 mg/kg/injection, schedule: Q01DX Z (ip), vehicle: methylcellulose (MC) 103 % of control | [10] 91 % of control | [12] 98 % of control

Cc1ccc(C(=O)OCc2ccc3c(c2)OCO3)cc1
inactive: dose: 222.0 mg/kg/injection, schedule: Q01DX Z (ip), vehicle: methylcellulose (MC) 97 % of control | dose: 333.0 mg/kg/injection, schedule: Q01DX Z (ip), vehicle: methylcellulose (MC) 89 % of control | dose: 500.0 mg/kg/injection, schedule: Q01DX Z (ip), vehicle: methylcellulose (MC) 89 % of control

COC(=O)C1=C2c3ccc(OC)cc3CCC2C(=O)C1 (configuration not stated)
inactive: [13] 97 % of control | [14] 105 % of control | [15] 89 % of control
